PubChem BioAssay AID720495 (Broad Institute, 2013)
Inconclusive results are not listed. Active and inactive are the calls of the source. No rule for the calls is given here.

Target: Protein AF-9 (Homo sapiens) (UniProt P42568)
Experiment: AF9 binding to AF4 blockers, potency – biochemical, cherry-picked samples, plate reader, dose response (AID 720495)
Settings: biochemical protein-protein interaction assay; for activity change, negative = inhibition: at 10 µM (top of the series)

Chain of Protein AF-9 (Homo sapiens) (P42568 whole entry, looked up): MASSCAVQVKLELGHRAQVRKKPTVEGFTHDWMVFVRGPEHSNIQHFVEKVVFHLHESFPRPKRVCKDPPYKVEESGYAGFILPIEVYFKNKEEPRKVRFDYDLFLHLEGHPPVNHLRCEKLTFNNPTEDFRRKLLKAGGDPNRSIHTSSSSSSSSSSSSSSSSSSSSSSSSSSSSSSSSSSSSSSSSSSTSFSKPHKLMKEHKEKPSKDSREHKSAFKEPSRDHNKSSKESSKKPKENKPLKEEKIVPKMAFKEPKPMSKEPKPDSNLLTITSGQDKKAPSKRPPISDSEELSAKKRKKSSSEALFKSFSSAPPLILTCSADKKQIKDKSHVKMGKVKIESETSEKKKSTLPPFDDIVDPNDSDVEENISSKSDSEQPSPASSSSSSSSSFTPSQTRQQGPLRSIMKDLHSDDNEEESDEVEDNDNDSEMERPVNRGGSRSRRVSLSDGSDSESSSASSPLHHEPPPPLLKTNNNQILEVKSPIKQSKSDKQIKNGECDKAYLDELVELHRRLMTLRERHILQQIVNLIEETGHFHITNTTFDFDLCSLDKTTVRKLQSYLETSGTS

| SMILES | activity change, negative = inhibition | AC50 |
| --- | --- | --- |
| Oc1ccccc1C=NCCCCCCN=Cc1ccccc1O | inactive |  |
| COc1ccc(N2CCC(CNC(=S)Nc3ccc(C)cc3C)C2)cc1 (stereo not drawn) | inactive |  |
| CC(C)(C)OC(=O)N1CCCN(C(c2ccnc3ccccc23)c2nnnn2-c2ccc3c(c2)OCCO3)CC1 (stereo not drawn) |  | 0.312 µM |
| Cn1cc(C(=O)N/N=C/c2c(O)ccc3ccccc23)ccc1=O | inactive |  |
| O=C(NC1CCCCC1)C(c1cccnc1)N(C(=O)CCl)c1cccc(Cl)c1 (stereo not drawn) | inactive |  |
| COc1ccc(C(CCNCc2ccc(N(C)C)cc2)c2ccccc2OC)cc1 (stereo not drawn) |  | 6.09 µM |
| COc1cccc(CNCCc2c[nH]c3ccccc23)c1OCc1ccccc1 |  | 11.5 µM |
| Cc1c(P(=S)(c2ccccc2)c2ccccc2)[n+]2ccccc2n1C |  | 7.98 µM |
| CCN(CC)CCOc1ccc2c(c1)C(=NNC(=O)c1ccccn1)c1cc(OCCN(CC)CC)ccc1-2 |  | 3.66 µM |
| O=C1c2cccc(NCCNCCO)c2C(=O)c2cccc(NCCNCCO)c21 |  | 6.88 µM |
| CCN(CCCl)c1cc(CN(C)C)cc(NC(=O)c2ccc(C(=O)Nc3cc(CN(C)C)cc(N(CC)CCCl)c3)cc2)c1 |  | 0.683 µM |
| CCn1c(-c2ccccc2)csc1=Nc1ccc(O)cc1 |  | 6.97 µM |
| COc1ccccc1N(C(C)=O)C1=C(Cl)C(=O)c2ccccc2C1=O |  | 7.96 µM |
| C[C@H](CO)N1C[C@H](C)[C@@H](CN(C)Cc2ccc(Oc3ccccc3)cc2)Oc2ccc(N(C)C)cc2C1=O |  | 10.7 µM |
| CS(=O)(=O)N1CCCCN2[C@H](C1)[C@H](c1ccc(C#Cc3ccccn3)cc1)[C@@H]2CO |  | 7.82 µM |
| CCOc1ccc(NCc2cccn2-c2nnc(N3CCC(C(=O)NCCCN4C(C)CCCC4C)CC3)s2)cc1 (stereo not drawn) |  | 5.36 µM |
| Cn1ccc2c(N3CCCCC3)cc3c(c21)C1CCC3C1 (stereo not drawn) | inactive |  |
| CCCCCN=C(N)N/N=C/c1c[nH]c2ccc(OC)cc12 | inactive |  |
| COc1ccc2[nH]c3c(C)c4cc[n+](C)cc4c(C)c3c2c1 |  | 3.07 µM |
| COc1ccc2[nH]c(C)c(CCNCc3cn(C)c4ccccc34)c2c1 |  | 6.85 µM |
| COc1ccc(NC2CCCN(Cc3cccc4cnccc34)C2)cc1OC (stereo not drawn) | inactive |  |
| COc1ccccc1C(CCNCc1ccc(N(C)C)cc1)c1ccc(OC(C)C)cc1 (stereo not drawn) |  | 3.3 µM |
| Fc1ccc([C@@H]2CCNC[C@H]2COc2ccc3c(c2)OCO3)cc1 | inactive |  |
| CN[C@H]1C[C@H]2c3[nH]c4ccc(-c5cccc(C)c5)cc4c3CCN2C[C@H]1[C@H](C)O |  | 6.97 µM |

| SMILES | activity change, negative = inhibition | AC50 |
| --- | --- | --- |
| C[C@@H]1CN([C@@H](C)CO)C(=O)c2cc(N(C)C)ccc2O[C@@H](C)CCCCO[C@@H]1CN(C)Cc1ccc(C(F)(F)F)cc1 |  | 10.5 µM |
| COc1cc(O)c(C(CCN2CCCCC2)c2ccc(N(C)C)cc2)c(OC)c1 (stereo not drawn) |  | 10.2 µM |
| O=c1c2ccccc2nc(/C=C/c2cccnc2)n1Cc1ccccc1 | inactive |  |
| C[C@@H]1ON(C)[C@H]2C[C@H]3c4[nH]c5ccc(-c6ccc7c(c6)OCO7)cc5c4CCN3C[C@@H]12 | inactive |  |
| c1ccc2c(Nc3ccc4c(c3)OCCO4)c3c(nc2c1)CCCC3 | inactive |  |
| CN(C)c1ccc(/C=C/C=C/c2sc3ccccc3[n+]2C)cc1 |  | 2.09 µM |
| COc1cccc(NC2=C(NCCO)C(=O)c3ccccc3C2=O)c1 |  | 6.38 µM |
| CCC(=O)N1CC2(CCN(Cc3ccc(Cl)cc3)CC2)c2c([nH]c3cc(OC)ccc23)[C@H]1CO |  | 10.4 µM |
| C#CCOCCOCCOCCNc1nc(N2CCN(C(=O)[C@H]([C@@H](C)CC)n3cc(CCCN=C(N)N)nn3)CC2)nc(N2CCN(C(=O)[C@H](CCCCN)n3cc(CCCC)nn3)CC2)n1 |  | 8.98 µM |
| C(=C\c1ccc2ccccc2n1)/c1ccccc1 | inactive |  |
| CCn1c(C)c(C(C)=O)c(N2CCN(c3ccc(OC)cc3)CC2)nc1=S | inactive |  |
| CN(C)c1ccc(/C=C/c2cc[n+](C)c3ccccc23)cc1 |  | 1.05 µM |
| Cc1[nH]c2ccccc2c1C(C#N)(C#N)C1C(=O)c2ccccc2C1=O |  | 0.981 µM |
| CCN1CCN(Cc2ccc(NC(=O)c3cc(NC(=O)c4nccnc4N)cc(OC)c3)cc2C(F)(F)F)CC1 | inactive |  |
| CCN(Cc1ccccc1)c1ccc(/C=N/N=C(N)N)cc1 |  | 4.43 µM |
| CSC(=S)N/N=C/c1c[nH]c2ccccc12 |  | 11.5 µM |
| C#CCOCCOCCOCCNc1nc(N2CCN(C(=O)[C@H](CCCCN)n3cc(CCCC)nn3)CC2)nc(N2CCN(C(=O)[C@H](CCCCN)n3cc(CCCC)nn3)CC2)n1 |  | 11.3 µM |
| CN(C)c1ccc(C=c2c3ccccc3n3c2c2ccccc2[n+]3C)cc1 |  | 1.65 µM |
| C[n+]1c2n(c3ccccc31)N=C(c1cc(C(C)(C)C)c(O)c(C(C)(C)C)c1)CS2 | inactive |  |
| CN(C)c1ccc(CNCCC(Cc2ccccc2)c2ccco2)cc1 (stereo not drawn) |  | 5.44 µM |
| CN(C)CCCNC(=O)c1ccc(-c2cc(O)c3ncccc3c2)cc1 |  | 0.693 µM |
| COc1ccccc1N1CCN(/N=C/c2cccc(Cl)c2)CC1 | inactive |  |
| Cc1nn(-c2ccccc2)c(Cl)c1/C=C1\C(=O)N(C)C(=S)N1C | inactive |  |
| CN1CCN(C(c2ccc(Cl)cc2)c2cc(Cl)c3cccnc3c2O)CC1 (stereo not drawn) |  | 0.984 µM |

| SMILES | activity change, negative = inhibition | AC50 |
| --- | --- | --- |
| CN(C)C(CNC(C(=O)Nc1ccc([N+](=O)[O-])cc1Br)c1ccccc1)c1ccccc1 (stereo not drawn) | inactive |  |
| C[C@@H]1CCCCO[C@H](CN(C)Cc2ccc(C(F)(F)F)cc2)[C@H](C)CN([C@H](C)CO)C(=O)c2cc(N(C)C)ccc2O1 | inactive |  |
| CN(C)c1ccc(NC(=O)Cn2cc3c(n2)CCCC3)cc1 | inactive |  |
| CCOC(=O)/C(C#N)=C/c1c(N2CCN(Cc3ccc4c(c3)OCO4)CC2)nc2c(C)cccn2c1=O | inactive |  |
| CN1CCN(/N=C/c2ccc(-c3ccc([N+](=O)[O-])cc3Cl)o2)CC1 |  | 9.35 µM |
| CCOC(=O)C1CCCN(C2=C(NS(=O)(=O)c3ccc(Br)cc3)C(=O)c3ccccc3C2=O)C1 (stereo not drawn) | inactive |  |
| c1cc2c3c(cccc3c1)NC(c1ccc3c(c1)OCO3)N2 | inactive |  |
| CCC(=O)N(C)C[C@H]1Oc2cc(C#Cc3ccncc3)ccc2S(=O)(=O)N([C@@H](C)CO)C[C@@H]1C | inactive |  |
| N=C(N)c1ccc(/C=C/c2ccc(C(=N)N)cc2O)cc1 |  | 3.33 µM |
| CCOC(=O)c1c(-c2ccc(-c3ccccc3)cc2)csc1NC(=O)CNCCN(C)C |  | 5.86 µM |
| O=C(O)CCNc1ccc(NCCC(=O)O)c2c1C(=O)c1ccccc1C2=O | inactive |  |
| COc1ccc2c(c1)c(=Cc1ccc(N(C)C)cc1)c1cc(-c3ccccc3)[n+](C)n12 |  | 2.49 µM |
| Oc1c(C(c2ccc(Cl)cc2)N2CCCC2)cc(Cl)c2cccnc12 (stereo not drawn) | inactive |  |
| Cn1c(SCC(=O)N2c3ccccc3Sc3ccc(Cl)cc32)nnc1-c1ccco1 | inactive |  |
| CN(C)CCNC(=O)c1cccc(-c2cnc3c(NC=O)cc(/C=C/c4ccccc4)cn23)c1 |  | 0.523 µM |
| O=C(Nc1cccc(CNCCc2c[nH]c3ccccc23)c1)c1ccccc1Cl | inactive |  |
| CC(=O)OCCNc1cc(N2CCN(C)CC2)c2noc3c2c1C(=O)c1ccccc1-3 |  | 1.94 µM |
| Cc1csc(Nc2ccccc2)[n+]1-c1ccccc1 | inactive |  |
| Cc1ccc(-c2cc(-c3ccc(C)cc3)[n+](-c3ccc(C(=O)[O-])cc3)c(-c3ccc(C)cc3)c2)cc1 | inactive |  |
| CN=c1scc(-c2ccc(OC)cc2)n1/N=C(\C)c1cccnc1 | inactive |  |
| NC(=NCCCCCCN=C(N)/N=C(\N)Nc1ccc(Cl)cc1)/N=C(\N)Nc1ccc(Cl)cc1 |  | 5.27 µM |
| O=C(O)CCCNc1cc(N2CCN(C(=O)c3ccco3)CC2)c2noc3c2c1C(=O)c1ccccc1-3 |  | 10.6 µM |
| Cc1ccc(Nc2cc(C)nc3c(C)ccc([N+](=O)[O-])c23)cc1 | inactive |  |
| CCN(CC)CCC(c1ccc(N(C)C)cc1)c1c(OC)cc(OC)c2c(-c3ccccc3)cc(=O)oc12 (stereo not drawn) |  | 3.97 µM |

| SMILES | activity change, negative = inhibition | AC50 |
| --- | --- | --- |
| C[C@H](CO)N1C[C@H](C)[C@H](CN(C)CC2CC2)OCCCC[C@H](C)Oc2ccc(NC(=O)Nc3ccc4c(c3)OCO4)cc2C1=O | inactive |  |
| N#C/C(C(N)=O)=c1/ccc2c(c1)N1C3=C(CCCC3)CC3CCCCC31N=2 (stereo not drawn) |  | 0.767 µM |
| CCOc1cc(N2CCOCC2)c(OCC)cc1NC(=O)c1ccc2ccccc2n1 | inactive |  |
| CCOc1ccc(OCCSc2ccc(S(=O)(=O)N3CCN(C)CC3)cn2)cc1 | inactive |  |
| O=C(COc1ccc2ccc(=O)oc2c1)Nc1ccc(N2CCCCC2)cc1 |  | 9.56 µM |
| CCN(CCCNc1cc2c(c(N)c1S(=O)(=O)O)C(=O)c1ccccc1C2=O)c1ccccc1 |  | 3.65 µM |
| Cc1[nH]c2ccc(O)cc2c1CCN |  | 5.35 µM |
| Cc1cccc(NC2=C(NCCO)C(=O)c3ccccc3C2=O)c1 |  | 3.55 µM |
| O=C(N/N=C/c1cc(Cl)cc([N+](=O)[O-])c1O)c1cccc(S(=O)(=O)N2CCOCC2)c1 | inactive |  |
| COc1ccc(N2CCN(C(=O)C3CCCN(S(=O)(=O)c4c(C)noc4C)C3)CC2)cc1 (stereo not drawn) | inactive |  |
| COCCN=c1scc(-c2ccco2)n1/N=C/c1ccc(O)c(O)c1O |  | 0.538 µM |
| C[n+]1c(-c2ccccc2)c2cc(N)ccc2c2ccc(N)cc21 |  | 9.5 µM |
| c1ccc2c(c1)nc(Nc1ccc(N3CCCCC3)cc1)c1nncn12 | inactive |  |
| CC#C[C@]1(O)CC[C@H]2[C@@H]3CCC4=CC(=O)CCC4=C3[C@@H](c3ccc(N(C)C)cc3)C[C@@]21C | inactive |  |
| Oc1c(C(c2ccccc2Cl)N2CCCC2)ccc2cccnc12 (stereo not drawn) |  | 0.995 µM |
| C[n+]1c(-c2ccc(C=NNC(=O)c3ccc(C(=O)NN=Cc4ccc(-c5cn6ccccc6[n+]5C)cc4)cc3)cc2)cn2ccccc21 |  | 0.804 µM |
| COC(=O)c1ccc2nc(C)cc(Nc3ccc(N(C)C)cc3)c2c1 |  | 4.41 µM |
| CN(C)c1ccc(C=c2c3ccccc3n3c2cc(-c2ccccc2)[n+]3C)cc1 |  | 2.43 µM |
| Brc1ccc(N/N=C(/N=Nc2nn[nH]n2)c2ccccc2)cc1 |  | 5.84 µM |
| CN(C)c1ccc(N=Nc2ccccc2Br)cc1 |  | 10.3 µM |
| CCN(CC)c1ccc(N=C2C(=O)Nc3ccccc32)cc1 |  | 2.77 µM |
